Laboratory results published in ChEMBL document CHEMBL4602617, “Discovery and optimization of heteroaryl piperazines as potent and selective PI3Kδ inhibitors” (Bioorg Med Chem Lett, 2020).

Key:
[1] = biological target: PI3-kinase p110-delta/p85-alpha (Homo sapiens, UniProt O00329); experiment: Inhibition of recombinant human full-length N-terminal GST-tagged p110delta/untagged full-length p85alpha expressed in baculovirus infected Sf21 cells using PIP2 as substrate preincubated for 15 mins followed by substrate addition and measured after 1 hr by HTRF assay
Homo sapiens [2] = organism: Homo sapiens; experiment: (§1) Selectivity index, ratio IC50 for inhibition of recombinant human full-length N-terminal His6-tagged p110alpha/untagged full-length p85alpha expressed in baculovirus infected Sf21 cells to ratio IC50 for inhibition of recombinant human full-length N-terminal GST-tagged p110delta/untagged full-length p85alpha expressed in baculovirus infected Sf21 cells
Homo sapiens [3] = organism: Homo sapiens; experiment: as §1, with “p110beta/untagged” for “p110alpha/untagged”
Homo sapiens [4] = organism: Homo sapiens; experiment: Selectivity index, ratio IC50 for inhibition of recombinant human N-terminal His6-tagged full-length p120gamma expressed in Sf21 insect cells to ratio IC50 for inhibition of recombinant human full-length N-terminal GST-tagged p110delta/untagged full-length p85alpha expressed in baculovirus infected Sf21 cells
[5] = biological target: T1, Phosphatidylinositol 4,5-bisphosphate 3-kinase catalytic subunit delta isoform (Homo sapiens, UniProt O00329); experiment: Inhibition of PI3K delta in human whole blood assessed as inhibition of anti-IgE-stimulated CysLt release in basophils preincubated for 30 mins followed by anti-IgE stimulation and measured after 20 mins; format: tissue-based
T1 sequence (O00329 whole entry): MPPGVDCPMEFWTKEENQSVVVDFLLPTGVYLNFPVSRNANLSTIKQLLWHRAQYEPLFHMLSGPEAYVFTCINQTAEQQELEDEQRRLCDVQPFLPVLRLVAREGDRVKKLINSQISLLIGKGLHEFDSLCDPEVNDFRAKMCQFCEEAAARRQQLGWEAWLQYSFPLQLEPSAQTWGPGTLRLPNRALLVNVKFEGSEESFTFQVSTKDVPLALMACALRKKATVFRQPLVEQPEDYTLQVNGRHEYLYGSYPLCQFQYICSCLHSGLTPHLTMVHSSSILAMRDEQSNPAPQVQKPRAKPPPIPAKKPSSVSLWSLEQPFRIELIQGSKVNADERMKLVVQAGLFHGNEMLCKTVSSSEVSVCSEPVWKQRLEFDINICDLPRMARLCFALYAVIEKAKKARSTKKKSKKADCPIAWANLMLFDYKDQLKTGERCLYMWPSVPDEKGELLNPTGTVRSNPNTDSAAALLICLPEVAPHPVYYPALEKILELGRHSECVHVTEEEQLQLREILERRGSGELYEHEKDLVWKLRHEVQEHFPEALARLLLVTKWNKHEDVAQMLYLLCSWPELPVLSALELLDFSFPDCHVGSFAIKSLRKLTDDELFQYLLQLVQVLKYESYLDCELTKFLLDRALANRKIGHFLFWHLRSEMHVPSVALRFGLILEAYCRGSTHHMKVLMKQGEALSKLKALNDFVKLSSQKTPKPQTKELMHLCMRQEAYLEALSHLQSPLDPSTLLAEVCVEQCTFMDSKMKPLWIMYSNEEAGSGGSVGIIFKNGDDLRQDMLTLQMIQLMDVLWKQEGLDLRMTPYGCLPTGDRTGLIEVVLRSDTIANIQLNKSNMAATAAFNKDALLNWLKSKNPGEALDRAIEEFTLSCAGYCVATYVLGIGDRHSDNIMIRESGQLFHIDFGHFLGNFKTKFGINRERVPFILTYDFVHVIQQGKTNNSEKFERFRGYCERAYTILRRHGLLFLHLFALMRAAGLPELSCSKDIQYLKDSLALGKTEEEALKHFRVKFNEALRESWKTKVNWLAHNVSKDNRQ

[6] = Distribution coefficient, logD of compound by HPLC analysis; format: physicochemical; conditions: octanol/water
[7] = Clearance in rat liver microsomes; format: ADME, Microsome; conditions: read-out: CLH
[8] = Clearance in human liver microsomes; format: ADME, Microsome; conditions: read-out: CLH
[9] = Clearance in Wistar Han rat plasma at 0.05 mg/kg, iv administered as cassette dose; format: ADME, organism-based
[10] = Volume of drug distribution in Wistar Han rat at 0.05 mg/kg, iv administered as cassette dose; format: ADME, organism-based; conditions: in vivo
[11] = Half life in Wistar Han rat at 0.05 mg/kg, iv administered as cassette dose; format: ADME, organism-based; conditions: in vivo
[12] = Intrinsic clearance in rat hepatocytes; format: ADME, cell-based, Hepatocyte; conditions: read-out: CLH
[13] = Intrinsic clearance in human hepatocytes; format: ADME, cell-based, Hepatocyte; conditions: read-out: CLH
[14] = Unbound clearance in Wistar Han rat at 0.05 mg/kg, iv administered as cassette dose; format: ADME, organism-based; conditions: in vivo
[15] = Protein binding in Wistar Han rat plasma at 0.05 mg/kg, iv administered as cassette dose; format: ADME, organism-based; conditions: read-out: PPB (converted)

Chain of PI3-kinase p110-delta/p85-alpha (P27986 whole entry, one chain of several): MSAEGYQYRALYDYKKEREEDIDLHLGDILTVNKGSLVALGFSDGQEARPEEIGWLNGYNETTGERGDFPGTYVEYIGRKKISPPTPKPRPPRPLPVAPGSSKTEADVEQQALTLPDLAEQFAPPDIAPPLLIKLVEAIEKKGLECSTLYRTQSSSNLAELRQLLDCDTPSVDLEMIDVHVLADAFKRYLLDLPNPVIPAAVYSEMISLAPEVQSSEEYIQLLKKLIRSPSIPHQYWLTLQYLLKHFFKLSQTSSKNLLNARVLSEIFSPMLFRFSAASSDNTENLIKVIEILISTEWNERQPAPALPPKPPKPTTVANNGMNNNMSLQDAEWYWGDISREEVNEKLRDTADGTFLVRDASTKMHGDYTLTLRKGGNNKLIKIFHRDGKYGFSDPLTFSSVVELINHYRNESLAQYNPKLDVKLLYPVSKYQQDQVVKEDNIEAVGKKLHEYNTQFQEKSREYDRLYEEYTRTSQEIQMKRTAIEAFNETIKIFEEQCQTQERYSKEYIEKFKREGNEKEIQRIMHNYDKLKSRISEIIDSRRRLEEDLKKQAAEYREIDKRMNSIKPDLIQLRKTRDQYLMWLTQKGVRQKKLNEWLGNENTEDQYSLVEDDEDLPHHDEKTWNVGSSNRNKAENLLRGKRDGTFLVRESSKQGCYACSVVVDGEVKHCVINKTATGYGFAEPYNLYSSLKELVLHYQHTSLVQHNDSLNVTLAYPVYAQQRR

IC50 [1]	IC50 [5]	logD [6]	CLint scaled [7]	CLint scaled [8]	clearance [9]	Vd [10]	half-life [11]	CLint scaled [12]	CLint scaled [13]	CL free [14]	fraction unbound [15]	SMILES	Ratio IC50 (Homo sapiens [2])	Ratio IC50 (Homo sapiens [3])	Ratio IC50 (Homo sapiens [4])
364 nM		3.43			90 mL/min/kg	3.6 L/kg	36 min	234 mL/min/kg	69 mL/min/kg			N#Cc1cnc(-c2cccnc2)nc1N1C[C@@H]2C[C@H]1CN2c1cccc(F)c1	> 27	> 27	> 27
1050 nM	5710 nM	1.7	< 36 mL/min/kg	< 16 mL/min/kg								C[C@@H]1CN(c2nc(-c3cnn(C)c3)ncc2C#N)CCN1C(=O)C1(C)CC1	> 12	> 12	> 12
2190 nM		0.8										CCNC(=O)N1C[C@@H]2C[C@H]1CN2c1nc(-c2cnn(C)c2)ncc1C#N	> 6	6	6
1600 nM		3.2										Cn1cc(-c2ncc(C#N)c(N3CCN(c4cccc(F)c4)CC3)n2)cn1	> 8	> 8	> 8
474 nM		3.82										N#Cc1cnc(-c2cccnc2)nc1N1C[C@@H]2C[C@H]1CN2c1cccc(Cl)c1	62	14	> 105
> 10000 nM		4.5										N#Cc1cnc(-c2ccccc2)nc1N1C[C@@H]2C[C@H]1CN2c1cccc(F)c1			
165 nM		3.3										C[C@@H]1CN(c2nc(-c3cnn(C)c3)ncc2C#N)CCN1c1cccc(F)c1	> 76	> 76	> 76
31 nM	2960 nM	3.1	1080 mL/min/kg	76 mL/min/kg	68 mL/min/kg	4.7 L/kg	66 min			4857 mL/min/kg	0.014	Cn1cc(-c2ncc(C#N)c(N3C[C@@H]4C[C@H]3CN4c3cccc(F)c3)n2)cn1	160	308	> 407
1520 nM		3.6	2050 mL/min/kg	91 mL/min/kg								Cn1cc(-c2ncc(C#N)c(N3CCN(c4cccc(F)c4)C(C)(C)C3)n2)cn1	> 8	> 8	> 8
86 nM		2.9										N#Cc1cnc(N2Cc3cn[nH]c3C2)nc1N1C[C@@H]2C[C@H]1CN2c1cccc(F)c1	> 146	> 146	> 146

Continued, molecule first:

SMILES	IC50 [1]	IC50 [5]	logD [6]	CLint scaled [7]	CLint scaled [8]	clearance [9]	Vd [10]	half-life [11]	CLint scaled [12]	CLint scaled [13]	CL free [14]	fraction unbound [15]	Ratio IC50 (Homo sapiens [2])	Ratio IC50 (Homo sapiens [3])	Ratio IC50 (Homo sapiens [4])
C[C@@H]1CN(c2nc(-c3cnn(C)c3)ncc2C#N)CCN1C(=O)C1CC1	108 nM	329 nM	1.5	< 36 mL/min/kg	21 mL/min/kg								> 116	> 116	> 116
CCC(=O)N1CCN(c2nc(-c3cnn(C)c3)ncc2C#N)C[C@H]1C	263 nM	2320 nM	1.4	< 36 mL/min/kg	< 16 mL/min/kg								> 48	> 48	> 48
N#Cc1cnc(-c2ccnc3[nH]ccc23)nc1N1C[C@@H]2C[C@H]1CN2c1cccc(F)c1	56 nM		3.4										76	93	225
N#Cc1cnc(-c2cnc3[nH]ccc3c2)nc1N1C[C@@H]2C[C@H]1CN2c1cccc(F)c1	918 nM												8	> 14	> 14
Cn1cc(-c2ncc(C#N)c(N3CC4CCC(C3)N4c3cccc(F)c3)n2)cn1	1030 nM		3.3	529 mL/min/kg	62 mL/min/kg								> 12	> 12	> 12
Cn1cc(-c2ncc(C#N)c(N3C[C@@H]4C[C@H]3CN4C(=O)C3CC3)n2)cn1	161 nM	258 nM	1.1	< 36 mL/min/kg	< 16 mL/min/kg	46 mL/min/kg	0.9 L/kg	12 min			85 mL/min/kg	0.54	> 78	78	78
C[C@@H]1CN(c2cnc(C#N)c(-c3cnn(C)c3)n2)CCN1C(=O)C1CC1	33 nM	219 nM	1.8	< 36 mL/min/kg	< 16 mL/min/kg								> 384	> 384	> 384
C[C@@H]1CN(c2nc(-c3cnn(C)c3)ncc2C#N)CCN1C(=O)C1CCC1	374 nM	1560 nM	2	< 36 mL/min/kg	< 16 mL/min/kg								> 33	> 33	> 33
C[C@@H]1CN(c2nc(-c3cnn(C)c3)cnc2C#N)CCN1C(=O)C1CC1	185 nM	737 nM	1.9	39 mL/min/kg	50 mL/min/kg								> 67	> 67	> 67
Cn1cc(-c2ncc(C#N)c(N3C[C@@H]4C[C@H]3CN4S(=O)(=O)C3CC3)n2)cn1	1190 nM	4120 nM	1.6	< 36 mL/min/kg	< 16 mL/min/kg								> 10	10	10
Cn1cc(-c2ncc(C#N)c(N3C[C@@H]4C[C@H]3CN4CC3CC3)n2)cn1	1430 nM	6970 nM	1.5	158 mL/min/kg	< 16 mL/min/kg										
CC1CC1C(=O)N1CCN(c2nc(-c3cnn(C)c3)ncc2C#N)C[C@H]1C (mixture of isomers)	79 nM	557 nM	2	< 36 mL/min/kg	< 16 mL/min/kg								> 159	> 159	159
C[C@@H]1CN(c2ncc(C#N)c(-c3cnn(C)c3)n2)CCN1C(=O)C1CC1	21 nM	764 nM	2	39 mL/min/kg	< 16 mL/min/kg								> 583	> 583	764
C[C@@H]1C[C@H]1C(=O)N1CCN(c2nc(-c3cnn(C)c3)ncc2C#N)C[C@H]1C	32 nM	187 nM	1.9	54 mL/min/kg	< 16 mL/min/kg								> 394	> 394	> 394
